Measurements reported in patent US20260297060A1, “COMPOUNDS FOR THE DEGRADATION OF MUTANT BRAF” (C4 THERAPEUTICS, INC., priority 2023, published 2026).
Like-named read-outs stand apart in the source and are kept apart here. Each block holds one compound with its values, some of them ahead of it.

Key:
[1] = test system: A375 human melanoma xenografts; assay: Example 6 efficacy study in A375 human melanoma xenografts (tumor volume, T/C, TGI); assay type: in vivo, BALB/c nude mice; settings: p.o., QD × 21 days; for T/C / TGI / Tumor Size on PG-D21: PG-D21; for Tumor Size on PG-D21 / Tumor volume: Mean ± SEM
Method: For efficacy study, compounds were tested in the A375 human melanoma xenografts. Known BRAF inhibitors encorafenib, and dabrafenib were used as positive controls. Encorafenib and dabrafenib were administered to BALB/c nude mice bearing A375 tumors on PG-D1 and dosed PO daily (QD) for 3 weeks. Encorafenib was dosed at 35 mg/kg. Dabrafenib was dosed at 100 mg/kg. Compound 83, Compound 93, Compound 70, and Compound 54 were administered to BALB/c nude mice bearing A375 tumors on PG-DO and dosed PO twice per day (BID) for 3 weeks. Compound 83, Compound 93, Compound 70, and Compound 54 were dosed at 10 mg/kg.
The A375 tumor cells were maintained in vitro in DMEM medium supplemented with […] and 1% Penicillin-Streptomycin at 37° C. in an atmosphere of 5% CO2 in air. The tumor cells were routinely subcultured twice weekly. The cells growing in an exponential growth phase were harvested and counted for tumor inoculation.
Each mouse was inoculated subcutaneously at the right flank with A375 tumor cells (5×10^6) in 0.2 mL of PBS with Matrigel (PBS: Matrigel=1:1) supplemented for tumor development. Animals were grouped for the treatment on day 16 after tumor inoculation when the average tumor volume reached 221 mm^3 for efficacy study and 386 mm^3 for PKPD study. The test articles administration and the animal numbers in each group are shown in the above experimental Tables.
Prior to the onset of drug treatment, mice were measured for tumor size in two dimensions using a caliper, and the tumor volume (mm^3) was calculated using formula V=0.5 a×b^2 where a and b are the long and short diameters of the tumor in mm, respectively. Mice were randomized into different treatment groups based on the tumor volume.
The major endpoint was to see if the tumor growth could be delayed or mice could be cured. The tumor size was then used for calculations of T/C value. The T/C value (in percent) is an indication of antitumor effectiveness; T and C are the mean volumes of the treated and control groups, respectively on specified day.
TGI was calculated for each group using the formula: TGI (%)=[1−(Ti−T0)/(Ci−C0)]×100; Ti is the average tumor volume of a treatment group on a given day, T0 is the average tumor volume of the treatment group on the day of treatment start, Ci is the average tumor volume of the vehicle control group on the same day with Ti, and C0 is the average tumor volume of the vehicle group on the day of treatment start.

[2] = Example 6 pharmacokinetics assay for PKPD study (plasma, tumor, liver); assay type: in vivo, BALB/c nude mice; settings: mouse, po, single dose
Method: For the pharmacokinetic/pharmacodynamic (PKPD) study, compounds were tested in the A375 human melanoma xenografts. Known BRAF inhibitors encorafenib, and dabrafenib were used as positive controls. Encorafenib, dabrafenib, Compound 83, Compound 93, Compound 70, and Compound 54 were administered to BALB/c nude mice bearing A375 tumors on PG-D1 and dosed orally (PO) once. Encorafenib was dosed at 35 mg/kg. Dabrafenib was dosed at 100 mg/kg. Compound 83, Compound 93, Compound 70, and Compound 54 were dosed at 10 mg/kg. The plasma and tumor samples were collected at 1, 6, 12 and 24 hours, and liver samples were collected at 6 hours and 12 hours post the single dose. This study was non-GLP study.
The plasma samples were collected at predetermined time points for PK analysis. The mice were euthanized at predetermined time points post the treatment. The blood samples were collected into the 1.5 mL Eppendorf tubes containing 15 μL of 0.5 M EDTA-K2. And then the anticoagulant blood samples were centrifuged at 2,500 g at 4° C. for 15 minutes. The plasma samples were separated into 2 aliquots. The 1st was used for PK analysis, and the 2nd served as backup. The samples were stored at −80° C. before bioanalysis.
The tumor samples were collected at predetermined time points for PK and WB analysis (B-RAF and p-ERK). The tumor was dissected out and split into 3 parts. The 1st part was used for PK analysis, the 2nd part was used for WB analysis and the last one served as backup for study. The samples were transferred into pre-labeled tubes and quickly froze in liquid nitrogen within 2 minutes after dissection. The samples were stored at −80° C. before bioanalysis.
Liver samples were collected at predetermined time points for PK analysis. The left lobe of the liver was dissected out and split into 2 parts. The 1st part was used for PK analysis and the 2nd part served as the backup for the study. The samples were transferred into pre-labeled tubes and quickly froze in liquid nitrogen within 2 minutes after dissection. The samples were stored at −80° C. before bioanalysis.
For PKPD study, the harvested plasma, tumor and liver were processed for pharmacokinetics analysis by LC/MS/MS with a concentration range of 0.5-1000 ng/mL for Encorafenib and Dabrafenib in plasma, 0.05-100 ng/mL for Encorafenib and Dabrafenib in tumor, 0.2-200 ng/mL for Encorafenib and Dabrafenib in liver, 2.0-2000 ng/mL for compound 93, compound 83, compound 54 and compound 70 in liver, 50.0-50000 ng/mL for compound 83 and compound 70 in plasma, 0.5-1000 ng/mL for compound 83 and compound 70 in tumor, 1.0-2000 ng/mL for compound 93 in plasma, 10.0-20000 ng/mL for compound 54 in plasma, 0.5-500 ng/mL for compound 93 and compound 54 in tumor.

[3] = liver, 100 mg/kg, read-out: Concentration in Liver (mean ± SEM)
[4] = plasma, 100 mg/kg, read-out: Concentration in Plasma (mean ± SEM)
[5] = tumor, 100 mg/kg, read-out: Concentration in Tumor (mean ± SEM)
[6] = liver, 35 mg/kg, read-out: Concentration in Liver (mean ± SEM)
[7] = plasma, 35 mg/kg, read-out: Concentration in Plasma (mean ± SEM)
[8] = tumor, 35 mg/kg, read-out: Concentration in Tumor (mean ± SEM)

concentration at 6 h [2, 3]: 157 ± 12.3 ng/g
concentration at 12 h [2, 3]: 19.2 ± 5.84 ng/g
concentration at 1 h [2, 4]: 276 ± 17.2 ng/mL
concentration at 6 h [2, 4]: 46.2 ± 5.05 ng/mL
concentration at 12 h [2, 4]: 6.74 ± 2.73 ng/mL
concentration at 24 h [2, 4]: 0.725 ± 0.11 ng/mL
concentration at 1 h [2, 5]: 225 ± 29.2 ng/g
concentration at 6 h [2, 5]: 32.8 ± 0.26 ng/g
concentration at 12 h [2, 5]: 9.59 ± 1.68 ng/g
concentration at 24 h [2, 5]: 1.34 ± 0.369 ng/g
SMILES: CC(C)(C)c1nc(-c2cccc(NS(=O)(=O)c3c(F)cccc3F)c2F)c(-c2ccnc(N)n2)s1 [Dabrafenib, dabrafenib, reference compound]
T/C ([1]; 100 mg/kg): 26.6%
TGI ([1]; 100 mg/kg): 81.5%
Tumor Size on PG-D21 ([1]; 100 mg/kg): 588 ± 244 mm^3
Tumor volume ([1]; 100 mg/kg, day 0): 221 ± 10 mm^3
Tumor volume ([1]; 100 mg/kg, day 4): 288 ± 19 mm^3
Tumor volume ([1]; 100 mg/kg, day 7): 348 ± 33 mm^3
Tumor volume ([1]; 100 mg/kg, day 11): 383 ± 64 mm^3
Tumor volume ([1]; 100 mg/kg, day 14): 407 ± 122 mm^3
Tumor volume ([1]; 100 mg/kg, day 18): 454 ± 159 mm^3
Tumor volume ([1]; 100 mg/kg, day 21): 588 ± 244 mm^3

SMILES: COC(=O)N[C@@H](C)CNc1nccc(-c2cn(C(C)C)nc2-c2cc(Cl)cc(NS(C)(=O)=O)c2F)n1 [Encorafenib, encorafenib, reference compound]
T/C ([1]; 35 mg/kg): 10.6%
TGI ([1]; 35 mg/kg): 99.3%
Tumor Size on PG-D21 ([1]; 35 mg/kg): 235 ± 68 mm^3
Tumor volume ([1]; 35 mg/kg, day 0): 221 ± 10 mm^3
Tumor volume ([1]; 35 mg/kg, day 4): 260 ± 22 mm^3
Tumor volume ([1]; 35 mg/kg, day 7): 278 ± 17 mm^3
Tumor volume ([1]; 35 mg/kg, day 11): 238 ± 18 mm^3
Tumor volume ([1]; 35 mg/kg, day 14): 209 ± 31 mm^3
Tumor volume ([1]; 35 mg/kg, day 18): 196 ± 47 mm^3
Tumor volume ([1]; 35 mg/kg, day 21): 235 ± 68 mm^3
concentration at 6 h [2, 6]: 375 ± 82 ng/g
concentration at 12 h [2, 6]: 12.6 ± 5.14 ng/g
concentration at 1 h [2, 7]: 5720 ± 493 ng/mL
concentration at 6 h [2, 7]: 654 ± 169 ng/mL
concentration at 12 h [2, 7]: 17.3 ± 7.09 ng/mL
concentration at 24 h [2, 7]: 0.895 ng/mL
concentration at 1 h [2, 8]: 1250 ± 161 ng/g
concentration at 6 h [2, 8]: 135 ± 22.8 ng/g
concentration at 12 h [2, 8]: 18.1 ± 7.47 ng/g
concentration at 24 h [2, 8]: 2.63 ± 0.386 ng/g
